Test results: patent US10227331B2 (priority 2015, dated 2019)

Legend:
[1] = molecular target: IMP-1 (Serratia marcescens, UniProt P52699); assay: biochemical; type: biochemical; conditions: CCF2-FA substrate, 2 hours at 25° C; read-out: IMP-1 IC50
In short: (§1)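 Fluorescence assay, CCF2-FA substrate (cephalosporin core linking 7-hydroxycoumarin to fluorescein); inhibitor + MBL + substrate, 2 h, 25° C. IC50 by 4-parameter fit, semi-log plot.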

[2] = molecular target: NDM-1 (Klebsiella pneumoniae, UniProt C7C422); assay: biochemical; type: biochemical; conditions: CCF2-FA substrate, 2 hours at 25° C; read-out: NDM-1 IC50
In short: as §1

[3] = molecular target: VIM-1 (Pseudomonas aeruginosa (strain ATCC 15692 / DSM 22644 / CIP 104116 / JCM 14847 / LMG 12228 / 1C / PRS 101 / PAO1), UniProt A0A0F7KYQ8); assay: biochemical; conditions: CCF2-FA substrate, 2 hours at 25° C
In short: as §1

[4] = tested on: Escherichia coli expressing NDM-1 (CLB30005, CLB30016); type: cell-based; conditions: with imipenem 1 μg/ml; 95% inhibition of bacterial growth
In short: (§2)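 Colonies from overnight 35 °C blood-agar cultures were suspended in saline, diluted 1:100 into 1.1× CAMHB and exposed to test compound with or without imipenem at 1 μg/ml. After 22–24 h at 35 °C, absorbance was read to find the concentration restoring imipenem susceptibility.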

[5] = tested on: Klebsiella pneumoniae expressing VIM-1 (IHMA599644); type: cell-based; conditions: with imipenem 1 μg/ml; 95% inhibition of bacterial growth
In short: as §2

[6] = tested on: Serratia marcescens expressing IMP-1 (CL5741); type: cell-based; conditions: with imipenem 1 μg/ml; 95% inhibition of bacterial growth
In short: as §2

[7] = tested on: P. aeruginosa expressing IMP-1, efflux+ (MB9798); type: cell-based, Pseudomonas aeruginosa; conditions: for P. aeruginosa expressing IMP-1, efflux+ (MB9798) MITC95: imipenem at 2 μg/mL, in the presence of a class A, C, D serine β-lactamase inhibitor closely related to relebactam; for Efflux ratio: ratio MITC95 PA_9798/MITC95 PA_9799
From the text: (§3) The strain background is Pseudomonas aeruginosa PAO1.

[8] = tested on: P. aeruginosa expressing IMP-1, efflux− (MB9799); assay: Efflux: concentration of MBL inhibitor which restores susceptibility to imipenem; type: cell-based, Pseudomonas aeruginosa; conditions: imipenem at 2 μg/mL, in the presence of a class A, C, D serine β-lactamase inhibitor closely related to relebactam
From the text: as §3

IMP-1, sequence (P52699 whole entry, looked up, species assumed): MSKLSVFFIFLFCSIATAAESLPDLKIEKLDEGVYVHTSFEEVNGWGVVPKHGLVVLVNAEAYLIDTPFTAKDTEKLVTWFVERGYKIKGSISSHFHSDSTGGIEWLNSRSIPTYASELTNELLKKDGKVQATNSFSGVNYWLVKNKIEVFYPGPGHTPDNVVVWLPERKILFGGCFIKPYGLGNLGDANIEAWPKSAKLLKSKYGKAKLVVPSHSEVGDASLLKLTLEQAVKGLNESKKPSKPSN
NDM-1, sequence (C7C422 whole entry, looked up, species assumed): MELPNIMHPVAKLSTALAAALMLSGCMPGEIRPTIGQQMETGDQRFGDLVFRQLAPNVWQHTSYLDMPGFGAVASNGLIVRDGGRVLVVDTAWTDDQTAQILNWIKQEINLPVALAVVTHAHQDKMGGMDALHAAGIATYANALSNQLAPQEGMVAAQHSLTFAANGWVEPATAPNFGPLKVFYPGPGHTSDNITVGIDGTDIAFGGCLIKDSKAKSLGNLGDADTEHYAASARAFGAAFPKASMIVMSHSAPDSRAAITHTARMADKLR

SMILES | IC50 [1] [nM] | IC50 [2] [nM] | IC50 [3] [nM] | Escherichia coli expressing NDM-1 (CLB30016) MITC95 [4] [µM] | Klebsiella pneumoniae expressing VIM-1 (IHMA599644) MITC95 [5] [µM] | Serratia marcescens expressing IMP-1 (CL5741) MITC95 [6] [µM] | P. aeruginosa expressing IMP-1, efflux+ (MB9798) MITC95 [7] [µM] | Efflux ratio [7] | P. aeruginosa expressing IMP-1, efflux− (MB9799) MITC95 [8] [µM]
NCCS(=O)(=O)c1ccc(-c2cccc(-n3cccn3)c2)c(-c2nnn[nH]2)c1S(N)(=O)=O.O=C(O)C(F)(F)F [Example 156, 2-((3′-(1H-pyrazol-1-yl)-3-sulfamoyl-2-(1H-tetrazol-5-yl)-[1,1′-biphenyl]-4-yl)sulfonyl)ethanaminium 2,2,2-trifluoroacetate] | 0.981 | 1.08 | 0.743 | 0.7813 | 6.25 | 1.563 | 50 | 31.99 | 1.563
NCCS(=O)(=O)c1ccc(-c2ccc3c(c2)CC(=O)N3)c(-c2nnn[nH]2)c1S(N)(=O)=O.O=C(O)C(F)(F)F [Example 157, 2-((4-(2-oxoindolin-5-yl)-2-sulfamoyl-3-(1H-tetrazol-5-yl)phenyl)sulfonyl)ethanaminium 2,2,2-trifluoroacetate] | 1.89 | 1.94 | 0.295 | 1.563 | 3.125 | 1.563 | 12.5 | 16.00 | 0.7813
NCCS(=O)(=O)c1ccc(-c2cccc(N3CCS(=O)(=O)CC3)c2)c(-c2nnn[nH]2)c1S(N)(=O)=O.O=C(O)C(F)(F)F [Example 158, 2-((3′-(1,1-dioxidothiomorpholino)-3-sulfamoyl-2-(1H-tetrazol-5-yl)-[1,1′-biphenyl]-4-yl)sulfonyl)ethanaminium 2,2,2-trifluoroacetate] | 6.27 | 16.6 | 7.08 | 12.5 | 25 | 12.5 | 200 | 64.00 | 3.125
NCCS(=O)(=O)c1ccc(-c2ccc3cccnc3c2)c(-c2nnn[nH]2)c1S(N)(=O)=O.O=C(O)C(F)(F)F [Example 159, 2-((4-(quinolin-7-yl)-2-sulfamoyl-3-(1H-tetrazol-5-yl)phenyl)sulfonyl)ethanaminium 2,2,2-trifluoroacetate] | 0.487 | 1.1 | 0.264 | 1.563 | 3.125 | 3.125 | 12.5 | 8.00 | 1.563
Cn1ncc2cc(-c3ccc(S(=O)(=O)CCN)c(S(N)(=O)=O)c3-c3nnn[nH]3)ccc21.O=C(O)C(F)(F)F [Example 160, 2-((4-(1-methyl-1H-indazol-5-yl)-2-sulfamoyl-3-(1H-tetrazol-5-yl)phenyl)sulfonyl)ethanaminium 2,2,2-trifluoroacetate] | 0.568 | 1.02 | 0.375 | 1.563 | 6.25 | 3.125 | 12.5 | 8.00 | 1.563
NCCS(=O)(=O)c1ccc(-c2cccc(S(=O)(=O)NC3CC3)c2)c(-c2nnn[nH]2)c1S(N)(=O)=O.O=C(O)C(F)(F)F [Example 161, 2-((3′-(N-cyclopropylsulfamoyl)-3-sulfamoyl-2-(1H-tetrazol-5-yl)-[1,1′-biphenyl]-4-yl)sulfonyl)ethanaminium 2,2,2-trifluoroacetate] | 1.69 | 3.47 | 3.04 | 6.25 | 12.5 | 6.25 | 50 | 31.99 | 1.563
Cc1n[nH]c2cc(F)c(-c3ccc(S(=O)(=O)CCN)c(S(N)(=O)=O)c3-c3nnn[nH]3)cc12.O=C(O)C(F)(F)F [Example 162, 2-((4-(6-fluoro-3-methyl-1H-indazol-5-yl)-2-sulfamoyl-3-(1H-tetrazol-5-yl)phenyl)sulfonyl)ethanaminium 2,2,2-trifluoroacetate] | 2.81 | 2.78 | 0.32 | 3.125 | 6.25 | 3.125 | 100 | 63.98 | 1.563
NCCS(=O)(=O)c1ccc(-c2ccc3[nH]nc(C(F)(F)F)c3c2)c(-c2nnn[nH]2)c1S(N)(=O)=O.O=C(O)C(F)(F)F [Example 163, 2-((2-sulfamoyl-3-(1H-tetrazol-5-yl)-4-(3-(trifluoromethyl)-1H-indazol-5-yl)phenyl)sulfonyl)ethanaminium 2,2,2-trifluoroacetate] | 1.22 | 0.98 | 0.12 | 1.563 | 3.125 | 3.125 | 100 | 127.99 | 0.7813
COc1ccc(-c2ccc(S(=O)(=O)CCN)c(S(N)(=O)=O)c2-c2nnn[nH]2)c2[nH]c(C(F)(F)F)nc12.O=C(O)C(F)(F)F [Example 164, 2-((4-(4-methoxy-2-(trifluoromethyl)-1H-benzo[d]imidazol-7-yl)-2-sulfamoyl-3-(1H-tetrazol-5-yl)phenyl)sulfonyl)ethanaminium 2,2,2-trifluoroacetate] | 0.233 | 0.147 | 0.143 | 6.25 | 6.25 | 3.125 | 6.25 | 2.00 | 3.125
NCCS(=O)(=O)c1ccc(-c2ccc3c(=O)nc[nH]c3c2)c(-c2nnn[nH]2)c1S(N)(=O)=O.O=C(O)C(F)(F)F [Example 165, 2-((4-(4-oxo-1,4-dihydroquinazolin-7-yl)-2-sulfamoyl-3-(1H-tetrazol-5-yl)phenyl)sulfonyl)ethanaminium 2,2,2-trifluoroacetate] | 1.6 | 2.48 | 0.571 | 3.125 | 6.25 | 3.125 | 12.5 | 4.00 | 3.125
NCCS(=O)(=O)c1ccc(-c2ccc3c(c2)CNC3=O)c(-c2nnn[nH]2)c1S(N)(=O)=O.O=C(O)C(F)(F)F [Example 166, 2-((4-(1-oxoisoindolin-5-yl)-2-sulfamoyl-3-(1H-tetrazol-5-yl)phenyl)sulfonyl)ethanaminium 2,2,2-trifluoroacetate] | 1.51 | 2.79 | 0.327 | 1.563 | 6.25 | 3.125 | 12.5 | 8.00 | 1.563
NCCS(=O)(=O)c1ccc(-c2ccc3[nH]ncc3c2)c(-c2nnn[nH]2)c1S(N)(=O)=O.O=C(O)C(F)(F)F [Example 167, 2-((4-(1H-indazol-5-yl)-2-sulfamoyl-3-(1H-tetrazol-5-yl)phenyl)sulfonyl)ethanaminium 2,2,2-trifluoroacetate] | 1.07 | 0.882 | 0.343 | 6.25 | 3.125 | 3.125 | 6.25 | 8.00 | 0.7813
